Structures are written as SMILES. Starred links: 1 amine or outer side, 2 acyl side, 3 side chain; linkers in the order of their positions; H or OH if unused. Non-standard residues stand in square brackets, D forms with d. Residues, ends and D or L forms follow the SMILES beside them. MeBmt = C/C=C/C[C@@H](C)[C@@H](O)[C@H](NC)C(=O)O; X1 = CN([C@H](OCCN1CCOCC1)C(=O)[*:2])[*:1]; X2 = CN(C)CCO[C@H](C(=O)[*:2])N(C)[*:1]; NMeL = CN[C@@H](CC(C)C)C(=O)O; NMeV = CN[C@H](C(=O)O)C(C)C; Nva = CCC[C@H](N)C(=O)O

In test [1] the target is Peptidyl-prolyl cis-trans isomerase F, mitochondrial (Human, UniProt P30405). The test can be described thus: Cyclophilin Peptidyl-Prolyl Isomerase Functional Assay.
Method: (§1) Assay buffer was cooled to 10° C. (with stirring) in a precision glass cuvette and inhibitor was added from a DMSO stock solution to afford a final concentration of <1% DMSO. A blank spectrum was obtained and then enzyme and substrate were added and the change in absorbance measured over 5 min. A first order rate was fitted to the absorbance data to obtain a rate constant (first 10 to 15 s were eliminated due to mixing). The catalytic rate was calculated from the enzymatic rate minus the background rate. The enzymatic rate constant, determined in duplicate at each inhibitor concentration, was plotted against inhibitor concentration and a non-linear fit by SigmaPlot generated a Ki.
Test [2] has as its target Peptidyl-prolyl cis-trans isomerase A (Homo sapiens, UniProt P62937). The test is described as above.
Method: as §1

Sequence of Peptidyl-prolyl cis-trans isomerase A (P62937 whole entry): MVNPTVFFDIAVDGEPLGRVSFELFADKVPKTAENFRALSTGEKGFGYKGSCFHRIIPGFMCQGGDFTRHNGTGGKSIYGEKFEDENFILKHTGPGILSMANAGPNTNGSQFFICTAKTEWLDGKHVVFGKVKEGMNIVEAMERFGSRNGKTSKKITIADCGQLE
Sequence of Peptidyl-prolyl cis-trans isomerase F, mitochondrial (P30405 whole entry): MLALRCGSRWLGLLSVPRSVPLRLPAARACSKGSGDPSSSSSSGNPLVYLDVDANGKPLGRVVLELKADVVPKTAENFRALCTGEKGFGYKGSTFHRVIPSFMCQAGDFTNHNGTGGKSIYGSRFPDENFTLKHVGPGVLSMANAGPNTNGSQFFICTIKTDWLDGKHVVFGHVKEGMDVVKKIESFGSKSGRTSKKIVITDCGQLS

A word on the Ki: it is a dissociation constant, usually derived from enzyme kinetics or from competition with a known ligand. Read a high Ki as a looser hold on the target. Take `C/C=C/C[C@@H](C)[C@@H](O)[C@H]1C(=O)N[C@@H](C(C)C)C(=O)N(C)[C@H](OCCN(C)C)C(=O)N(C)[C@@H](CC(C)C)C(=O)N[C@@H](C(C)C)C(=O)N(C)[C@@H](CC(C)C)C(=O)N[C@@H](C)C(=O)N[C@H](C)C(=O)N(C)[C@@H](CC(C)C)C(=O)N(C)[C@@H](CC(C)C)C(=O)N(C)[C@@H](C(C)C)C(=O)N1C` [US12522634, Compound 3] (cyclo(A[dA][NMeL][NMeL][NMeV][MeBmt]V[X2][NMeL]V[NMeL])): the affinity in test [1] corresponds to a Ki of 5.1 nM.

For `C/C=C/C[C@@H](C)[C@@H](O)[C@H]1C(=O)N[C@@H](C(C)C)C(=O)N(C)[C@H](OCCN2CCOCC2)C(=O)N(C)[C@@H](CC(C)C)C(=O)N[C@@H](C(C)C)C(=O)N(C)[C@@H](CC(C)C)C(=O)N[C@@H](C)C(=O)N[C@H](C)C(=O)N(C)[C@@H](CC(C)C)C(=O)N(C)[C@@H](CC(C)C)C(=O)N(C)[C@@H](C(C)C)C(=O)N1C` [US12522634, Compound 4] (cyclo(A[dA][NMeL][NMeL][NMeV][MeBmt]V[X1][NMeL]V[NMeL])), the Ki in test [1] stood at 4.1 nM; in test [2] it was 2.3 nM.

As for `C/C=C/C[C@@H](C)[C@@H](O)[C@H]1C(=O)N[C@@H](CCC)C(=O)N(C)[C@H](OCCN(C)C)C(=O)N(C)[C@@H](CC(C)C)C(=O)N[C@@H](C(C)C)C(=O)N(C)[C@@H](CC(C)C)C(=O)N[C@@H](C)C(=O)N[C@H](C)C(=O)N(C)[C@@H](CC(C)C)C(=O)N(C)[C@@H](CC(C)C)C(=O)N(C)[C@@H](C(C)C)C(=O)N1C` [US12522634, Compound 7] (cyclo(A[dA][NMeL][NMeL][NMeV][MeBmt][Nva][X2][NMeL]V[NMeL])), the Ki in test [1] amounted to 5.9 nM; in test [2], 9.4 nM.

For the molecule `C/C=C/C[C@@H](C)[C@@H](O)[C@H]1C(=O)N[C@@H](CCC)C(=O)N(C)[C@H](OCCN2CCOCC2)C(=O)N(C)[C@@H](CC(C)C)C(=O)N[C@@H](C(C)C)C(=O)N(C)[C@@H](CC(C)C)C(=O)N[C@@H](C)C(=O)N[C@H](C)C(=O)N(C)[C@@H](CC(C)C)C(=O)N(C)[C@@H](CC(C)C)C(=O)N(C)[C@@H](C(C)C)C(=O)N1C` [US12522634, Compound 8] (cyclo(A[dA][NMeL][NMeL][NMeV][MeBmt][Nva][X1][NMeL]V[NMeL])), the figures for the Ki in test [1] and in test [2] were 35 nM and 39 nM, respectively.

The record behind these values is BindingDB's records for patent US12522634 (Farsight Medical Technology (Shanghai), 2026).
